Results published in patent US10280171B2, “Heterocyclic inhibitors of PTPN11” (priority 2016, dated 2019).

test system: Phospho-ERK levels in KYSE-520 cells; assay: pERK AlphaScreen Protocol; format: cell-based; conditions: Homo sapiens, KYSE-520, 2 h, KYSE-520 cells, 2 hr compound incubation, phospho-ERK1/2 AlphaScreen SureFire; read-out: PERK Avg IC50
Description: KYSE-520 cells (10 k cells/well) were grown in 384-well plate in 20 uL of medium (RPMI-1640, without phenol red, containing 10% FBS) at 37° C. with 5% CO2 overnight. DMSO (control) or increasing concentrations of compounds were diluted in medium, added to the 384-well plate (5 uL/well, final DMSO concentration of 1%), and cells were then incubated with compounds for 2 hr. Phospho-ERK levels were measured using phospho-ERK1/2 AlphaScreen SureFire (PerkinElmer, TGRESB10K) following manufacturer's recommendations. Dose-response curves were analyzed using IC50 regression curve fitting (GeneData Screener). Curves were normalized to a high control without inhibitor (DMSO only), and low control (1 μM selumetinib).

Row | Structure (SMILES) | IC50 [µM]
1 | CC(N)C1(C)CCN(c2cnc3c(-c4ccnc(N)c4Cl)n[nH]c3n2)CC1 (single isomer, unassigned) [Example 113a, 4-(6-(4-(1-Aminoethyl)-4-methylpiperidin-1-yl)-1H-pyrazolo[3,4-b]pyrazin-3-yl)-3-chloropyridin-2-amine] | 0.1
2 | Nc1nccc(-c2n[nH]c3nc(N4CCC5(CCC5N)CC4)cnc23)c1Cl (single isomer, unassigned; enantiomer 1) [Example 136a, 7-[3-(2-amino-3-chloropyridine-4-yl)-1H-pyrazolo[3,4-b]-pyrazin-6-yl]-7-aza-spiro[3.5]nonan-1-amine, enantiomer 1] | 2.27
3 | NC1C(F)(F)CCC12CCN(c1cnc3c(-c4cccc(Cl)c4Cl)n[nH]c3n1)CC2 (single isomer, unassigned; isomer a) [Example 65A, 8-(3-(2,3-Dichlorophenyl)-1H-pyrazolo[3,4-b]pyrazin-6-yl)-2,2-difluoro-8-azaspiro[4.5]decan-1-amine, isomer A] | 0.093
4 | CC1(N)CCN(c2cnc3c(-c4c(F)cccc4Cl)n[nH]c3n2)CC1 [Example 32, 1-(3-(2-chloro-6-fluorophenyl)-1H-pyrazolo[3,4-b]-pyrazin-6-yl)-4-methylpiperidin-4-amine] | 0.284
5 | N[C@@H]1COCC12CCN(c1cnc3c(-c4cccc(Cl)c4Cl)n[nH]c3n1)CC2 [Example 38, (S)-8-(3-(2,3-Dichlorophenyl)-1H-pyrazolo[3,4-b]pyrazin-6-yl)-2-oxa-8-azaspiro[4.5]-decan-4-amine] | 0.04
6 | N[C@@H]1COCC12CCN(c1cnc3c(-c4cccc(F)c4Cl)n[nH]c3n1)CC2 [Example 42, (S)-8-(3-(2-chloro-3-fluorophenyl)-1H-pyrazolo[3,4-b]-pyrazin-6-yl)-2-oxa-8-azaspiro[4.5]-decan-4-amine] | 0.063
7 | N[C@@H]1CCCC12CCN(c1cnc3c(-c4ccc(Cl)c(Cl)c4)n[nH]c3n1)CC2 [Example 46, (R)-8-(3-(3,4-dichloro-phenyl)-1H-pyrazolo[3,4-b]-pyrazin-6-yl)-8-aza-spiro[4.5]decan-1-amine] | 0.666
8 | N[C@@H]1CCCC12CCN(c1cnc3c(-c4cccnc4Cl)n[nH]c3n1)CC2 [Example 53, (R)-8-(3-(2-chloro-pyridin-3-yl)-1H-pyrazolo[3,4-b]-pyrazin-6-yl)-8-aza-spiro[4.5]decan-1-amine] | 0.224
9 | NC1(CO)CCN(c2cnc3c(-c4cccnc4Cl)n[nH]c3n2)CC1 [Example 59, (4-amino-1-(3-(2-chloropyridin-3-yl)-1H-pyrazolo[3,4-b]pyrazin-6-yl)-piperidin-4-yl)-methanol] | 1.04
10 | NC1(CO)CCN(c2cnc3c(-c4cccc(F)c4Cl)n[nH]c3n2)CC1 [Example 62, (4-amino-1-(3-(2-chloro-3-fluoro-phenyl)-1H-pyrazolo[3,4-b]-pyrazin-6-yl)-piperidin-4-yl)-methanol] | 0.31
11 | NCC1(O)CCN(c2cnc3c(-c4c(F)cccc4Cl)n[nH]c3n2)CC1 [Example 63, 4-(aminomethyl)-1-(3-(2-chloro-6-fluorophenyl)-1H-pyrazolo [3,4-b]-pyrazin-6-yl)-piperidin-4-ol] | 0.687
12 | CNc1nccc(-c2n[nH]c3nc(N4CCC(C)(N)CC4)cnc23)c1Cl [Example 112, 4-(6-(4-Amino-4-methylpiperidin-1-yl)-1H-pyrazolo[3,4-b]pyrazin-3-yl)-3-chloro-N-methylpyridin-2-amine] | 0.058
13 | Nc1nccc(-c2n[nH]c3nc(N4CCC5(CCC5N)CC4)cnc23)c1Cl (stereo not drawn) [Example 115, 7-(3-(2-Amino-3-chloropyridin-4-yl)-1H-pyrazolo[3,4-b]pyrazin-6-yl)-7-azaspiro[3.5]nonan-1-amine] | 0.427

same assay, conditions: KYSE-520 cells, 2 hr compound incubation, phospho-ERK1/2 AlphaScreen SureFire; read-out: PERK Avg IC50

Row | Structure (SMILES) | IC50 [µM]
14 | NC1C(F)CCC12CCN(c1cnc3c(-c4cccc(Cl)c4Cl)n[nH]c3n1)CC2 (single isomer, unassigned) [Example 64B, 8-(3-(2,3-Dichlorophenyl)-1H-pyrazolo[3,4-b]pyrazin-6-yl)-2-fluoro-8-azaspiro[4.5]decan-1-amine] | 0.07
15 | NC1C(F)(F)CCC12CCN(c1cnc3c(-c4cccc(Cl)c4Cl)n[nH]c3n1)CC2 (single isomer, unassigned) [Example 65B, 8-(3-(2,3-Dichlorophenyl)-1H-pyrazolo[3,4-b]pyrazin-6-yl)-2,2-difluoro-8-azaspiro[4.5]decan-1-amine] | 0.165
16 | Nc1nccc(-c2n[nH]c3nc(N4CCC5(CCC5N)CC4)cnc23)c1Cl (single isomer, unassigned; enantiomer 2) [Example 136b, 7-[3-(2-amino-3-chloropyridin-4-yl)-1H-pyrazolo-[3,4-b]-pyrazin-6-yl]-7-aza-spiro[3.5]nonan-1-amine, enantiomer 2] | 1.96
17 | NC1C(F)CCC12CCN(c1cnc3c(-c4cccc(Cl)c4Cl)n[nH]c3n1)CC2 (single isomer, unassigned; isomer a) [Example 64A, 8-(3-(2,3-Dichlorophenyl)-1H-pyrazolo[3,4-b]pyrazin-6-yl)-2-fluoro-8-azaspiro[4.5]decan-1-amine, isomer A] | 0.034

target: PTPN11-E76K mutant enzyme (Homo sapiens (Human), UniProt Q06124, E76K); assay: PTPN11 Enzymatic Assay (DiFMUP phosphatase activity); format: biochemical; conditions: PTPN11-E76K Avg IC50, full length PTPN11-E76K mutant enzyme 250 pM, DiFMUP 50 μM, 30 min preincubation
Description: Reaction was initiated by addition of DiFMUP (50 μM) at room temperature in 384-well black plate with a final reaction volume of 20 uL in assay buffer. […] Dose-response curves were analyzed using IC50 regression curve fitting (GeneData Screener). Curves were normalized to a high controls without inhibitor, and low controls without enzyme.

Chain of PTPN11-E76K mutant enzyme (Q06124 whole entry E76K): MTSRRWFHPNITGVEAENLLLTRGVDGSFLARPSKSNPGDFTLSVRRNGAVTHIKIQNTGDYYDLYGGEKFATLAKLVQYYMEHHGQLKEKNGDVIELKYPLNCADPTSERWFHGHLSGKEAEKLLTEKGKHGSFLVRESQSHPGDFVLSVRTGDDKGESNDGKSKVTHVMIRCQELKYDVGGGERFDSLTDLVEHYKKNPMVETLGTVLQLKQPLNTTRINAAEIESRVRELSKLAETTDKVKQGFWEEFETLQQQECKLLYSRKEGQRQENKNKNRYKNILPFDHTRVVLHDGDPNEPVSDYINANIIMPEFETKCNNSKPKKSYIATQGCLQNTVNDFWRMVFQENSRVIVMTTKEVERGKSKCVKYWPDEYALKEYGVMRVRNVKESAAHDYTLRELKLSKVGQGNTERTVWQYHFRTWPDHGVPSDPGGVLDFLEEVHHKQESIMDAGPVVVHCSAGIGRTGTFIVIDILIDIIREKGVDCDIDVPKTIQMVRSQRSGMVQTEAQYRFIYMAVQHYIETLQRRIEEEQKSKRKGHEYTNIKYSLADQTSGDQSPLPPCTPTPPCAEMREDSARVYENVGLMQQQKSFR

Row | Structure (SMILES) | IC50 [µM]
18 | NC1C(F)CCC12CCN(c1cnc3c(-c4cccc(Cl)c4Cl)n[nH]c3n1)CC2 (single isomer, unassigned) [Example 64B, 8-(3-(2,3-Dichlorophenyl)-1H-pyrazolo[3,4-b]pyrazin-6-yl)-2-fluoro-8-azaspiro[4.5]decan-1-amine] | 0.221
19 | NC1C(F)(F)CCC12CCN(c1cnc3c(-c4cccc(Cl)c4Cl)n[nH]c3n1)CC2 (single isomer, unassigned) [Example 65B, 8-(3-(2,3-Dichlorophenyl)-1H-pyrazolo[3,4-b]pyrazin-6-yl)-2,2-difluoro-8-azaspiro[4.5]decan-1-amine] | 0.471
20 | NC1C(F)CCC12CCN(c1cnc3c(-c4cccc(Cl)c4Cl)n[nH]c3n1)CC2 (single isomer, unassigned; isomer a) [Example 64A, 8-(3-(2,3-Dichlorophenyl)-1H-pyrazolo[3,4-b]pyrazin-6-yl)-2-fluoro-8-azaspiro[4.5]decan-1-amine, isomer A] | 0.098
21 | NC1C(F)(F)CCC12CCN(c1cnc3c(-c4cccc(Cl)c4Cl)n[nH]c3n1)CC2 (single isomer, unassigned; isomer a) [Example 65A, 8-(3-(2,3-Dichlorophenyl)-1H-pyrazolo[3,4-b]pyrazin-6-yl)-2,2-difluoro-8-azaspiro[4.5]decan-1-amine, isomer A] | 0.235

same assay, conditions: full length PTPN11-E76K mutant enzyme 250 pM, DiFMUP 50 μM, 30 min preincubation; read-out: PTPN11-E76K Avg IC50

Row | Structure (SMILES) | IC50 [µM]
22 | CC(N)C1(C)CCN(c2cnc3c(-c4ccnc(N)c4Cl)n[nH]c3n2)CC1 (single isomer, unassigned) [Example 113a, 4-(6-(4-(1-Aminoethyl)-4-methylpiperidin-1-yl)-1H-pyrazolo[3,4-b]pyrazin-3-yl)-3-chloropyridin-2-amine] | 0.18
23 | CC1(N)CCN(c2cnc3c(-c4cccc(Cl)c4F)n[nH]c3n2)CC1 [Example 26, 1-(3-(3-chloro-2-fluorophenyl)-1H-pyrazolo[3,4-b]-pyrazin-6-yl)-4-methylpiperidin-4-amine] | 0.213
24 | COc1cc(-c2n[nH]c3nc(N4CCC5(CCC[C@H]5N)CC4)cnc23)ccc1Cl [Example 34, (R)-8-(3-(4-chloro-3-methoxyphenyl)-1H-pyrazolo[3,4-b]-pyrazin-6-yl)-8-aza-spiro[4.5]decan-1-amine] | 0.102
25 | Cc1c(Cl)cccc1-c1n[nH]c2nc(N3CCC4(CCC[C@H]4N)CC3)cnc12 [Example 51, (R)-8-(3-(3-chloro-2-methylphenyl)-1H-pyrazolo[3,4-b]pyrazin-6-yl)-8-azaspiro[4.5]decan-1-amine] | 0.153
26 | COc1cc(Cl)cc(-c2n[nH]c3nc(N4CCC5(CCC[C@H]5N)CC4)cnc23)c1 [Example 52, (R)-8-(3-(3-chloro-5-methoxyphenyl)-1H-pyrazolo[3,4-b]pyrazin-6-yl)-8-azaspiro[4.5]decan-1-amine] | 0.313
27 | Cc1c(-c2n[nH]c3nc(N4CCC5(CCC[C@H]5N)CC4)cnc23)ccnc1N [Example 122, (R)-8-(3-(2-amino-3-methylpyridin-4-yl)-1H-pyrazolo[3,4-b]pyrazin-6-yl)-8-azaspiro[4.5]decan-1-amine] | 0.205
28 | Cc1c(-c2n[nH]c3nc(N4CCC(C)(N)CC4)cnc23)ccnc1N [Example 123, 4-(6-(4-amino-4-methylpiperidin-1-yl)-1H-pyrazolo[3,4-b]pyrazin-3-yl)-3-methylpyridin-2-amine] | 0.67
29 | Cc1c(-c2n[nH]c3nc(N4CCC(C)(CN)CC4)cnc23)ccnc1N [Example 124, 4-(6-(4-(Aminomethyl)-4-methylpiperidin-1-yl)-1H-pyrazolo[3,4-b]pyrazin-3-yl)-3-methylpyridin-2-amine] | 0.377
30 | Nc1nccc(-c2n[nH]c3nc(N4CCC5(CC4)C[C@H](O)C[C@H]5N)cnc23)c1Cl [Example 126, (2S,4R)-4-Amino-8-(3-(2-amino-3-chloropyridin-4-yl)-1H-pyrazolo[3,4-b]pyrazin-6-yl)-8-azaspiro[4.5]decan-2-ol] | 0.075
